Experimental data published in patent publication US12240841B2, “FXR small molecule agonist and preparation method therefor and use thereof” (Shanghai Institute of Materia Medica, Chinese Academy of …, priority 2019, dated 2025).

What was measured:
[1] = test system: CCL4-induced hepatic fibrosis model mice; test: CCL4-induced hepatic fibrosis model mice; format: in vivo, mouse
Protocol: In this experiment, CCL4 induced hepatic fibrosis model mice were used to investigate the effect of long-term oral administration of compound 8 on hepatic fibrosis in the model mice.
Experimental method: Male C57BL/6j mice were injected intraperitoneally with 2 mL/kg, 10% CCl4 (dissolved in olive oil) three times a week to induce liver fibrosis model. Two weeks after the model was made, the blood was taken from the retro-ocular venous plexus of the mice to detect serum ALT, AST, TBA and LDH indicators. According to ALT, AST, TBA, LDH, body weight and other indicators, the mice were randomly divided into 5 groups. […] During the administration period, the animals' food intake and body weight were monitored. After 3 weeks of administration, the blood was taken from the retro-ocular venous plexus of the mice to detect serum ALT, AST, TBA and LDH indicators. After 6 weeks of administration, the blood was taken from the retro-ocular venous plexus and the mice were dislocated and sacrificed. The livers were taken out and weighed. Part of the liver was fixed with 4% paraformaldehyde, and part of the liver was frozen at −80° C. During the whole experiment, another 10 mice in the same cage were intraperitoneally injected with the same volume of olive oil as the system normal control group (WT).
This experiment detected indicators such as the levels of liver function indicators ALT, AST, TBA, LDH in serum, the expression of α-SMA and Col1α1 gene levels in the liver, and the pathological changes of the liver (Sirius scarlet stain), etc., thereby reflecting whether the compound has the effect of relieving liver fibrosis.

[2] = test system: TAA-induced hepatic fibrosis model rats; test: TAA-induced hepatic fibrosis model rats; format: in vivo, rat
Protocol: 1) Pharmacodynamic Evaluation of Compound 1 (LXF-32) on TAA-Induced Hepatic Fibrosis Model Rats
In this experiment, TAA induced hepatic fibrosis model rats were used to investigate the effect of long-term oral administration of compound 1 on hepatic fibrosis in the model rats.
Experimental method: Male SD rats were intraperitoneally injected with thioacetamide (TAA, dissolved in normal saline) at a dose of 150 mg/kg three times a week to induce a liver fibrosis model. Four weeks after the model was made, the blood was taken from the retro-ocular venous plexus of the rats to detect serum ALP indicators. […] During the administration period, the animal's food intake and body weight were monitored. After 2 weeks of administration, the blood was taken from the retro-ocular venous plexus of the rats to detect serum ALP indicators. After 4 weeks of administration, the blood was taken from the retro-ocular venous plexus and the rats were dislocated and sacrificed. The livers were taken out and weighed. Part of the liver was fixed with 4% paraformaldehyde, and part of the liver was frozen at −80° C. During the whole experiment, another 8 rats in the same cage were injected intraperitoneally with the same volume of normal saline as the system normal control group (WT). This experiment detected indicators such as the level of liver function index ALP in serum, the expression of α-SMA and Col1α1 (fibrosis-related genes) gene level in the liver, the content of hydroxyproline (a characteristic amino acid of collagen) in the liver, and the pathological changes of the liver (Sirius scarlet stain), etc., thereby reflecting whether the compound has the effect of relieving liver fibrosis.

[3] = target: T1, recombinant GST-FXR fusion protein (Homo sapiens, UniProt Q96RI1); test: FXR activity at the molecular level (AlphaScreen); format: biochemical
T1 sequence (Q96RI1 1-486): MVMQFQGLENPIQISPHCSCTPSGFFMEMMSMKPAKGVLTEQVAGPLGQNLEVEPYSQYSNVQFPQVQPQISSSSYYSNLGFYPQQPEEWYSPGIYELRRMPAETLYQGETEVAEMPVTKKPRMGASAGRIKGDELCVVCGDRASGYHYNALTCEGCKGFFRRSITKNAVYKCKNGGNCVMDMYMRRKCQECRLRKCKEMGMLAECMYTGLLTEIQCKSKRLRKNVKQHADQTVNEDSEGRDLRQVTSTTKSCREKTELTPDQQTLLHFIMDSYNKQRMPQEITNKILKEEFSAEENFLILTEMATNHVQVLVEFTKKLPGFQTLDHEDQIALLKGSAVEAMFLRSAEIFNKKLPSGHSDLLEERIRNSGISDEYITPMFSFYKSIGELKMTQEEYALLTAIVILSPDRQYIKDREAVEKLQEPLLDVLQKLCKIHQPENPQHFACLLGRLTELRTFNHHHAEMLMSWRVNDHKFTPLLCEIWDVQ
Protocol: Test Method for FXR Activity at the Molecular Level
FXR activity was determined using recombinant GST-FXR fusion protein by Perkin Elmer's AlphaScreen detection reagent. The reaction in this method was carried out in a 384-well plate, and the total reaction volume was 15 μL. The mixture of protein, agonist, co-regulatory factor, AlphaScreen® acceptor beads and AlphaScreen® donor beads was reacted in a buffer containing Tris-HCl 50 mM (pH7.4), 50 mM NaCl, BSA 0.1%, and 1 mM DTT. The FXR activity was reflected by the fluorescence signal intensity at 570 nm wavelength detected by the Envision fluorescence detector. The value of EC50 was calculated by the software Graphpad Prism 5.

FXR receptor = target: T2, FXR receptor (Homo sapiens, UniProt Q96RI1); test: FXR activity at the cell level (FXRE luciferase reporter in 293T cells); format: cell-based; conditions: 293T cells; for Activity relative to OCA (%) 10 μM: luciferase reporter; for EC50: FXRE luciferase reporter, read-out: EC50 (cell level)
T2 construct: expressed in transfected cells; host or cells: 293T cells
T2 sequence (Q96RI1 1-486): T1 sequence (Q96RI1 1-486)
Protocol: The cells were cultured for 24 hours to ensure plasmid expression. Then the FXR receptor agonist to be tested was added and acted for 18 hours. The fluorescence intensity was detected using luciferase kit (steady-Glo Luciferase Assay system) to reflect the compound's activation efficiency on the FXR receptor. […] The appropriate concentration interval was selected, and the dose-dependent relationship, that is, the EC50 value, was calculated.

[4] = high-dose 20 mg/kg oral once a day, 6 weeks
[5] = low-dose 6 mg/kg oral once a day, 6 weeks
[6] = 20 mg/kg oral once a day, 4 weeks

For `CC[C@H]1[C@@H](O)[C@@H]2[C@H](CC[C@]3(C)[C@@H]([C@H](C)CCC(=O)O)CC[C@@H]23)[C@@]2(C)CC[C@@H](O)C[C@@H]12` [OCA, reference compound], the “level of ALT in serum” value [1, 4] was “significantly reduced”, the “level of AST in serum” value [1, 4] was “significantly reduced” and the “level of TBA in serum” value [1, 4] was “significantly reduced”. For the same compound, the “level of TBA in serum” value [1, 5] was “lowering effect”.

For `O=c1[nH]c(-c2cccc(N3CCC(OCc4c(-c5c(Cl)cccc5Cl)noc4C4CC4)CC3)c2)no1` [Example 1], the “collagen content in the liver (Sirius scarlet stained sections)” value (shortened to “collagen content in the liver”) [2, 6] was “reduced the collagen content in the liver, because there were large differences within the model group, and there was no statistical difference”, the “content of hydroxyproline in liver tissue” value [2, 6] was “reduced” and the “expression of Col1α1 mRNA in liver tissue” value [2, 6] was “significantly down-regulated”. The “expression of α-SMA mRNA in liver tissue” value [2, 6] was “significantly down-regulated”, the “level of ALP in serum” value ([2]; 20 mg/kg oral once a day, 4 weeks, vs model control) was “significantly reduced” and the “effect on liver fibrosis (summary)” value ([2]; long-term administration) was “a certain alleviating effect”. The EC50 [3] was 446 nM, the “Activity relative to OCA (%) 10 μM” value (FXR receptor) was 109% and the EC50 (FXR receptor) was 110 nM.

For `O=c1[nH]c(-c2ccc(N3CCC(OCc4c(-c5ccccc5C(F)(F)F)noc4C4CC4)CC3)cc2)no1` [Example 8], the “collagen content in the liver” value ([1]; high-dose 20 mg/kg) was “significantly reduced”, the “effect on LDH in serum” value [1, 4] was “little effect” and the “level of ALT in serum” value [1, 4] was “significantly reduced”. The “level of AST in serum” value [1, 4] was “significantly reduced”, the “level of TBA in serum” value [1, 4] was “significantly reduced” and the “expression of col1α1 in the liver” value ([1]; high-dose 20 mg/kg, 6 weeks) was “down-regulated”. The “expression of α-SMA in the liver” value ([1]; high-dose 20 mg/kg, 6 weeks) was “significantly down-regulated”, the “effect on liver fibrosis (summary)” value ([1]; long-term administration) was “a certain alleviating effect” and the “collagen content in the liver” value ([1]; low-dose 6 mg/kg) was “significantly reduced”. The “effect on liver collagen content compared with the low-dose OCA group” value ([1]; low-dose 6 mg/kg) was “slightly better”, the “effect on LDH in serum” value [1, 5] was “little effect” and the “level of ALT in serum” value [1, 5] was “significantly reduced”. The “level of AST in serum” value [1, 5] was “significantly reduced”, the “level of TBA in serum” value [1, 5] was “significantly reduced” and the “effect on serum liver function indicators compared with the low-dose OCA group” value ([1]; low-dose 6 mg/kg, 6 weeks) was “slightly better”. The EC50 [3] was 104 nM, the “Activity relative to OCA (%) 10 μM” value (FXR receptor) was 88% and the EC50 (FXR receptor) was 5 nM.
